Results published in patent publication US9605000B2, “Spiro azetidine isoxazole derivatives and their use as SSTR antagonists” (Takeda Pharmaceutical Company Limited, priority 2013, dated 2017).

Assays:
hERG = hERG (Homo sapiens, UniProt Q12809); experiment: hERG activity measurement by IonWorks Quattro (Test Example 4); format: cell-based; settings: 5 minutes exposure, CHO cells stably expressing hERG, IonWorks Quattro PPC mode
Experimental: hERG Activity Measurement by IonWorks Quattro
A cell strain CYL3038 having hERG stably expressed in CHO cells was purchased from Millipore LIMITED. A subculture of CYL3038 was prepared using Ham's F-12 medium containing 10% FBS and 500 μg/mL Geneticin, under the presence of 5% CO2 at 32° C. hERG current inhibition was measured by PPC mode of IonWorks Quattro (Molecular Devices, Inc.). As an extracellular fluid, PBS (+) was used. As an intracellular fluid, 20 mM HEPES buffer (pH 7.3) containing 140 mM KCl, 2 mM MgCl2 and 1 mM EGTA was used, and the cell was perforated by amphotericin. As the voltage protocol, holding potential was set to −80 mV, prepulsevoltage was set to 40 mV (2 seconds) and test pulsevoltage was set to −50 mV (2 seconds). Current values before and after addition of compound are respectively recorded as pre-compound hERG current and post-compound hERG current.

C57BL/6J mice = experiment: Evaluation of glucose lowering effect (oral glucose load in high fat diet fed mice, Test Example 3); format: in vivo; settings: 3 mg/kg oral, male C57BL/6J mice on HFD, Mean ± SD, n = 6
Experimental: Evaluation of Glucose Lowering Effect
8-week-old male C57BL/6J mice were purchased from CLEA Japan, Inc. After feeding high fat diet (HFD; D12492, Research Diets, Inc.) for a week, weight of mice is measured a day before the experiment, and the mice were separated in groups based on the weight. On the day of experiment, vehicle (0.5% methyl cellulose solution) or test drug (0.5% methyl cellulose suspension) were orally administered 1 hour after fasting was started and glucose load was given orally 9 hours after fasting was started. Just before the glucose load, Blood Glucose (BG) was measured by drawing blood from the tail (pre), and BG was measured again from the tail 10 minutes, 30 minutes, 60 minutes and 120 minutes after the glucose load. All values were indicated with Mean±Standard Deviation (SD), and in the statistical analysis, Williams test was used for the case of equal variance and Shirley-Williams test was used for non-equal variance in the comparison of the vehicle group and test drug group.

human SSTR5 [1] = target: T1, human SSTR5 (Homo sapiens, UniProt P35346); experiment: Human SSTR5 antagonist activity using intracellular cAMP concentration as indicator (somatostatin 28, Test Example 2); format: cell-based; settings: 1 μM test compound; somatostatin 28 and 0.3 μM forskolin; CHO (dhfr-) cells expressing human SSTR5; HTRF cAMP; read-out: Inhibition rate (%) with respect to SSTR5 in concentration of 1 μM
T1 construct: expressed in transfected cells
Experimental: Evaluation of Human SSTR5 Antagonist Activity Using an Intracellular cAMP Concentration as an Indicator
Measurement of the intracellular cAMP concentration was performed using a HTRF cAMP dynamic 2 kit (manufactured by Cisbio). A test compound which was diluted with an assay buffer (5 mM HEPES (pH 7.5) (manufactured by Invitrogen Corp.), 0.1% fatty-acid free BSA (manufactured by Sigma-Aldrich, Inc.), HBSS (manufactured by Invitrogen Corp.) containing 500 μM IBMX (manufactured by Wako Pure Chemical Industries, Ltd) was added by 2 μL/well to a 384 well white plate (manufactured by Greiner) such that a final concentration become 1 μM. A frozen stock, which was stably expressed dihydrofolate reductase-deficient CHO (dhfr-) cells in which human SSTR5 gene (Accession No. NM001053) was melted in a thermostatic chamber at 37° C., and it was suspended on a medium of subculture (medium prepared from MEM alpha (manufactured by Wako Pure Chemical Industries, Ltd.), 10% dialyzed serum (manufacture by Gemini Co., Ltd.) and 50 μg/mL gentamicin (manufactured by Invitrogen Corp.). After centrifuging the cell suspension, the cell suspension was resuspended using the assay buffer, and the resultant was added to each well by 2 μL/well to be 4000 cells/well. After a test compound and cells were incubated for 15 minutes. An assay buffer which contains 0.1 nM of somatostatin 28 (manufactured by Toray Research Center) and 0.3 μM of forskolin (manufactured by Wako Pure Chemical Industries, Ltd) as a final concentration was added by […], and incubation was performed for 30 minutes at room temperature. Each of cAMP-d2 and anti-cAMP-cryptate was added by 3 μL/well, it was allowed to stand for 60 minutes at room temperature, and FRET (Fluorescence resonance energy transfer) intensity was measured using Multi-label reader Envision (manufactured by Perkin Elmer Inc.). Using the calibration curve prepared from the FRET intensity of well groups in which cAMP as arbitrary concentration was added to an assay buffer, FRET intensity of wells in which a test compound group was added was converted into cAMP concentration. Inhibitory activity of compounds was calculated using the following equation. Inhibitory activity (%)=(C−B)/(A−B)×100 A: cAMP concentration calculated from wells in which 0.3 μM of forskolin is added B: cAMP concentration calculated from wells in which 0.3 μM of forskolin and 1 nM of somatostatin 28 are added C: cAMP concentration wells in which 0.3 μM of forskolin, 1 nM of somatostatin 28 and 1 μM of test compound are added
Inhibition rates (%) are described in Table 3 with respect to SSTR5 in concentration of 1 μM of a test compound.

human SSTR5 [2] = target: T1, human SSTR5; experiment: Human SSTR5 antagonist activity using intracellular cAMP concentration as indicator (somatostatin 14, Test Example 1); format: cell-based; settings: 1 μM test compound; 1 nM somatostatin 14 and 0.3 μM forskolin; CHO (dhfr-) cells expressing human SSTR5; HTRF cAMP; read-out: Inhibition rate (%) with respect to SSTR5 in concentration of 1 μM
Procedure, shortened: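 dhfr- CHO cells stably expressing human SSTR5 preincubated 15 min with compound (1 μM final) in HEPES pH 7.5/BSA/500 μM IBMX buffer, then stimulated 30 min at room temperature with 1 nM somatostatin 14 plus 0.3 μM forskolin. cAMP read by HTRF; % inhibition of somatostatin-lowered cAMP reported.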

T1 sequence (P35346 whole entry): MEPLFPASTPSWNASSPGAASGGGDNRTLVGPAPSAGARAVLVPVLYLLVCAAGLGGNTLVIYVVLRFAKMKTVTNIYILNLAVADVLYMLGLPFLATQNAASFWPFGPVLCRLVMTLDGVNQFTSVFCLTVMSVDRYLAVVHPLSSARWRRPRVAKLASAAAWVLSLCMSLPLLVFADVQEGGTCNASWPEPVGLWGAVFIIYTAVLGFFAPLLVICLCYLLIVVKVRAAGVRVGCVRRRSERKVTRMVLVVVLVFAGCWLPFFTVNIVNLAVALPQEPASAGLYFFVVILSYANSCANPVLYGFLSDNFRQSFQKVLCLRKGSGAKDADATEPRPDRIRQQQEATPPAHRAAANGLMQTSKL
Chain of hERG (Q12809 whole entry): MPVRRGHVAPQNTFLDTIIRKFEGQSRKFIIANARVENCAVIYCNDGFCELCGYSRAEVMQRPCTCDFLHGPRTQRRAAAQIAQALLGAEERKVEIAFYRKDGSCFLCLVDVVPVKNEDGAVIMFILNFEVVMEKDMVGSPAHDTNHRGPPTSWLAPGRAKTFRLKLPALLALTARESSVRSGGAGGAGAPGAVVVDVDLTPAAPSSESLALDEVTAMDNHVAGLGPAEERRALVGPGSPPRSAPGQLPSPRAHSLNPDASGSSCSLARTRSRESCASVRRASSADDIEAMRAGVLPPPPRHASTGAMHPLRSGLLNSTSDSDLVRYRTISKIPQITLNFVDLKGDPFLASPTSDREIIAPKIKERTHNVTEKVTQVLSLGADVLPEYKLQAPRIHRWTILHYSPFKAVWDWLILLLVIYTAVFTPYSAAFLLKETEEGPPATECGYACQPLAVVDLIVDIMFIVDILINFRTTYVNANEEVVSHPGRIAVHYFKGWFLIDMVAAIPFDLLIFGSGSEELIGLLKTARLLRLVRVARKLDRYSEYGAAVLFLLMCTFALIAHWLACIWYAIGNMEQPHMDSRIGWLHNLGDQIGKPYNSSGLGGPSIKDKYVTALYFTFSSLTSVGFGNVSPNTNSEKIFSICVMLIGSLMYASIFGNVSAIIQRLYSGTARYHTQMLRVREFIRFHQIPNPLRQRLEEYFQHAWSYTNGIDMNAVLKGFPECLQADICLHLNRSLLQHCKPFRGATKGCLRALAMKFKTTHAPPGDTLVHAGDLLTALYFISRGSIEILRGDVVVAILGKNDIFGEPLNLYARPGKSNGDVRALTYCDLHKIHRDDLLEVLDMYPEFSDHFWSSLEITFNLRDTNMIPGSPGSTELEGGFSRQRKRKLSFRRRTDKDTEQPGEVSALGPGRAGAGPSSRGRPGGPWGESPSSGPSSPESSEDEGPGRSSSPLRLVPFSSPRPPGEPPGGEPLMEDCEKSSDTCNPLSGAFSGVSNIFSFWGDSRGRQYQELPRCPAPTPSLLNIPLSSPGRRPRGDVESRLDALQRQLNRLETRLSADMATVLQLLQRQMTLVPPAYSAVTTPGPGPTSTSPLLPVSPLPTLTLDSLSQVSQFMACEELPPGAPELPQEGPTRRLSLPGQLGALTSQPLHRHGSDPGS

inhibition at 1 µM (human SSTR5 [1]) [%]	SMILES	further results
99	COc1c(CN2CC3(CC(N4CCC(C)(C(=O)O)CC4)=NO3)C2)cc(C2CC2)c(-c2ccc(F)cc2)c1Cl [Example 238, 1-(2-((2-Chloro-6-cyclopropyl-4′-fluoro-3-methoxybiphenyl-4-yl)methyl)-5-oxa-2,6-diazaspiro[3.4]oct-6-en-7-yl)-4-methylpiperidine-4-carboxylic acid]	% hERG inhibition (10 μM) (hERG): 10%; Blood Glucose (BG) 10 min (C57BL/6J mice; 10 minutes after glucose load): 261 ± 42; Blood Glucose (BG) 30 min (C57BL/6J mice; 30 minutes after glucose load): 350 ± 49; Blood Glucose (BG) 60 min (C57BL/6J mice; 60 minutes after glucose load): 345 ± 38; Blood Glucose (BG) 120 min (C57BL/6J mice; 120 minutes after glucose load): 188 ± 22; AUCpre-120 min (C57BL/6J mice; blood glucose AUC pre to 120 min after glucose load): 576 ± 52; Blood Glucose (BG) pre (C57BL/6J mice; just before glucose load): 148 ± 19
102	CC(C)Oc1cc(C2CC2)c(C2CC2)cc1CN1CC2(CC(N3CCC(C)(C(=O)O)CC3)=NO2)C1 [Example 248, 1-(2-(4,5-Dicyclopropyl-2-isopropoxybenzyl)-5-oxa-2,6-diazaspiro[3.4]oct-6-en-7-yl)-4-methylpiperidine-4-carboxylic acid]	
92	CCOc1c(CN2CC3(CC(N4CCC(C(=O)O)CC4)=NO3)C2)cc(C2CC2)c(-c2ccc(F)cc2)c1F [Example 261, 1-(2-((6-Cyclopropyl-3-ethoxy-2,4′-difluorobiphenyl-4-yl)methyl)-5-oxa-2,6-diazaspiro[3.4]oct-6-en-7-yl)piperidine-4-carboxylic acid]	
121	CC(C)Oc1c(CN2CC3(CC(N4CCC(C)(C(=O)O)CC4)=NO3)C2)cc(C2CC2)c(C2CC2)c1F [Example 256, 1-(2-(4,5-Dicyclopropyl-3-fluoro-2-isopropoxybenzyl)-5-oxa-2,6-diazaspiro[3.4]oct-6-en-7-yl)-4-methylpiperidine-4-carboxylic acid]	
98	CCOc1cc(C2CC2)c(C2CC2)cc1CN1CC2(CC(N3CCC(C)(C(=O)O)CC3)=NO2)C1 [Example 250, 1-(2-(4,5-Dicyclopropyl-2-ethoxybenzyl)-5-oxa-2,6-diazaspiro[3.4]oct-6-en-7-yl)-4-methylpiperidine-4-carboxylic acid]	
124	COc1c(CN2CC3(CC(N4CCC(C)(C(=O)O)CC4)=NO3)C2)cc(C2CC2)c(-c2ccc(F)cc2F)c1Cl [Example 258, 1-(2-((2-Chloro-6-cyclopropyl-2′,4′-difluoro-3-methoxybiphenyl-4-yl)methyl)-5-oxa-2,6-diazaspiro[3.4]oct-6-en-7-yl)-4-methylpiperidine-4-carboxylic acid]	
90	COc1c(CN2CC3(CC(N4CCC(C)(C(=O)O)CC4)=NO3)C2)cc(C2CC2)c(-c2ccc(F)cc2F)c1F [Example 259, 1-(2-((6-Cyclopropyl-2,2′,4′-trifluoro-3-methoxybiphenyl-4-yl)methyl)-5-oxa-2,6-diazaspiro[3.4]oct-6-en-7-yl)-4-methylpiperidine-4-carboxylic acid]	
92	COc1c(CN2CC3(CC(N4CCC(C)(C(=O)O)CC4)=NO3)C2)cc(C2CC2)c(-c2ccc(F)cc2)c1F [Example 265, 1-(2-((6-Cyclopropyl-2,4′-difluoro-3-methoxybiphenyl-4-yl)methyl)-5-oxa-2,6-diazaspiro[3.4]oct-6-en-7-yl)-4-methylpiperidine-4-carboxylic acid]	% hERG inhibition (10 μM) (hERG): 18%
94	CCOc1c(CN2CC3(CC(N4CCC(C)(C(=O)O)CC4)=NO3)C2)cc(C2CC2)c(-c2ccc(F)cc2)c1Cl [Example 239, 1-(2-((2-Chloro-6-cyclopropyl-3-ethoxy-4′-fluorobiphenyl-4-yl)methyl)-5-oxa-2,6-diazaspiro[3.4]oct-6-en-7-yl)-4-methylpiperidine-4-carboxylic acid]	
100	CCC1(C(=O)O)CCN(C2=NOC3(C2)CN(Cc2cc(C4CC4)c(-c4ccc(F)cc4F)c(Cl)c2OC)C3)CC1 [Example 262, 1-(2-((2-Chloro-6-cyclopropyl-2′,4′-difluoro-3-methoxybiphenyl-4-yl)methyl)-5-oxa-2,6-diazaspiro[3.4]oct-6-en-7-yl)-4-ethylpiperidine-4-carboxylic acid]	
88	COc1c(CN2CC3(CC(N4CCC(C(=O)O)CC4)=NO3)C2)cc(C2CC2)c(-c2ccc(F)cc2)c1F [Example 266, 1-(2-((6-Cyclopropyl-2,4′-difluoro-3-methoxybiphenyl-4-yl)methyl)-5-oxa-2,6-diazaspiro[3.4]oct-6-en-7-yl)piperidine-4-carboxylic acid]	
117	CCOc1c(CN2CC3(CC(N4CCC(C)(C(=O)O)CC4)=NO3)C2)cc(C2CC2)c(C2CC2)c1F [Example 257, 1-(2-(4,5-Dicyclopropyl-2-ethoxy-3-fluorobenzyl)-5-oxa-2,6-diazaspiro[3.4]oct-6-en-7-yl)-4-methylpiperidine-4-carboxylic acid]	
	CCOc1cc(CN2CC3(CC(N4CCC(C)(C(=O)O)CC4)=NO3)C2)cc(C2CC2)c1-c1ccc(F)cc1F [Example 118, 1-(2-((2-Cyclopropyl-6-ethoxy-2′,4′-difluorobiphenyl-4-yl)methyl)-5-oxa-2,6-diazaspiro[3.4]oct-6-en-7-yl)-4-methylpiperidine-4-carboxylic acid]	inhibition at 1 µM (human SSTR5 [2]): 90%
	CC1(C(=O)O)CCN(C2=NOC3(C2)CN(Cc2cc(OC[C@H]4CC4(F)F)c(-c4ccc(F)cc4)c(C4CC4)c2)C3)CC1 [Example 183, 1-(2-((2-Cyclopropyl-6-(((1R)-2,2-difluorocyclopropyl)methoxy)-4′-fluorobiphenyl-4-yl)methyl)-5-oxa-2,6-diazaspiro[3.4]oct-6-en-7-yl)-4-methylpiperidine-4-carboxylic acid]	inhibition at 1 µM (human SSTR5 [2]): 101%
